Columns and labels:
skin = settings: systemic administration, clinical use; cited from earlier work
[1] = test system: neovasculature of the eye (advanced AMD); assay: Clinical trial of PDT with Talaporfin Sodium and 664 nm laser light in 9 human subjects with advanced AMD; format: in vivo
From the text: A clinical trial of 9 human subjects with advanced AMD was arranged. The 9 subjects were each treated with PDT using Talaporfin Sodium, and a laser light at 664 nm wavelength as the excitation light source. The Table as provided in FIG. 1 describes the results of and details of the PDT procedures performed on the 9 subjects.

[2] = test system: subfoveal choroidal neovascularization (CNV); settings: cases followed for 3 months after a single PDT treatment; cited from earlier work
[3] = test system: choroidal neovascularization (CNV); settings: cited from earlier work
[4] = test system: choroidal neovascularization (CNV); settings: after re-treatment; cited from earlier work
classic CNV = settings: 3 months after initial PDT treatment; cited from earlier work

## CCOC(=O)C1=Cc2c3nc(cc4nc(cc5[n-]c(cc6[n-]c2c(C)c6CC)c(C)c5CC)C(C)=C4CC)[C@@H](C)[C@]13CC.[Cl-].[Cl-].[Sn] (racemic) [Purlytin]
skin
  duration of skin photosensitivity: several weeks

## Oc1cccc(-c2c3nc(c(-c4cccc(O)c4)c4ccc([nH]4)c(-c4cccc(O)c4)c4nc(c(-c5cccc(O)c5)c5ccc2[nH]5)CC4)C=C3)c1 [Foscan]
skin
  duration of skin photosensitivity: several weeks

## C=Cc1c(C)c2cc3nc(c(CC(=O)N[C@@H](CC(=O)O)C(=O)O)c4[nH]c(cc5nc(cc1[nH]2)C(C)=C5CC)c(C)c4C(=O)O)[C@@H](CCC(=O)O)[C@@H]3C [Talaporfin Sodium, mono-L-aspartyl-chlorin e6]
[1]; most patients of 9 subjects, laser light 664 nm
  extended period of enhanced neovasculature occlusive effect: ≥ 15 weeks
[1]; subjects 1 and 3, who had leakage causing serious elevation of the retina
  retina and leakage after treatment: the retina appeared more flat and leakage had apparently ceased
[1]; subjects studied, FIG. 1
  re-opening of treated vessels during subsequent observations: no indication of re-opening of vessels

## sodium porfimer [Photophrine]
skin
  duration of skin photosensitivity: up to 6 weeks

## verteporfin
[2]
  cases with progression of classic CNV beyond the area of CNV identified before treatment: 51%
[3]; after 1 week
  subject eyes that maintained CNV closure: 83%
[3]; after 5 weeks
  eyes showing closure: 9%
[3]; after 5 weeks, excluding one eye removed from test data
  eyes showing leakage had recommenced: 91%
[4]
  leakage activity compared to baseline leakage: appeared to be reduced
Classic CNV
  eyes scheduled for retreatment: 90.8%
  eyes with classic CNV present that displayed leakage from classic CNV again: 92.8%

Reference: patent publication US20060229284A1, “Enhanced occlusive effect photodynamic therapy” (priority 2004, published 2006)
